According to paper PMC11274128, “Modification and Synergistic Studies of a Novel Frog Antimicrobial Peptide against Pseudomonas aeruginosa Biofilms” (Antibiotics, 2024):
Converted amounts (≈) assume the structure as drawn. Where two headings read alike, the source gives them in different places. Bridge positions count the residues as written; N and C are the ends. Peptide text beside a SMILES is read from it.

Experiments:
[1] = test system: K. pneumoniae (ATCC 43816); assay: microbe, parasite or virus in culture; assay type: cell-based, Klebsiella pneumoniae; conditions: planktonic K. pneumoniae ATCC 43816
Excerpt: (§1) The minimum inhibitory concentration (MIC) is the minimum concentration of an antimicrobial agent that prevents the visible growth of a bacterium or bacteria. The MIC is an important piece of data for research on new antimicrobial agents and helps in the effective selection of antibiotics to improve the success of treatment. The minimum bactericidal concentration (MBC) is defined as the lowest antibiotic concentration that kills 99.9% of the inoculum. This study mainly contained eight different microorganisms, which were Staphylococcus aureus (ATCC 6538), methicillin-resistant Staphylococcus aureus (NCTC 12493), Enterococcus faecalis (NCTC 12697), Escherichia coli (ATCC 8739), Klebsiella pneumoniae (ATCC 43816), Pseudomonas aeruginosa (ATCC CRM 9027), Acinetobacter baumannii (BAA 747), and Candida albicans (ATCC 10231). The bacteria were incubated in the compatible medium at 37 °C overnight.

S. aureus ATCC 6538 = conditions: checkerboard MIC, planktonic S. aureus ATCC 6538, 37 °C, 24 h, OD 550 nm
Method: (§2) The bacteria were cultured, subcultured, diluted, and incubated as the methods of the MIC assay. The pure peptides and antibiotics were weighed and, respectively, dissolved in DMSO and dd water to make the final concentration of 2× MIC. […] Different concentrations of peptide and antibiotic solutions were added to a 96-well plate in the form of a checkerboard grid. The blank control and growth control were still 100 µL medium and 100 µL bacterial culture. The plate was incubated at 37 °C for 24 h. After that, the plate reader was used to monitor the absorbance of each well at 550 nm (The Synergy TM HT, BioTek, Winooski, VT, USA).
(§3) Parameter fractional inhibitory concentration indices (FICIs) were used to evaluate the synergistic effect, and the value of that was calculated as follows:FICI = FICa + FICb FICa = MIC combination peptide/MIC single peptide FICb = MIC combination antibiotic/MIC single antibiotic
(§4) The FICI value was interpreted as “synergy” (FICI ≤ 0.5), “no interaction” (0.5 < FICI ≤ 4), or “antagonism” (FICI > 4).

MRSA NCTC 12493 = conditions: checkerboard MIC, planktonic MRSA NCTC 12493, 37 °C, 24 h, OD 550 nm
Method: as §2, §3, §4

[2] = test system: P. aeruginosa ATCC CRM 9027; conditions: checkerboard MIC, planktonic P. aeruginosa ATCC CRM 9027, 37 °C, 24 h, OD 550 nm
Method: as §2, §3, §4

K. pneumoniae ATCC 43816 = conditions: checkerboard MIC, planktonic K. pneumoniae ATCC 43816, 37 °C, 24 h, OD 550 nm
Method: as §2, §3, §4

A. baumannii BAA 747 = conditions: checkerboard MIC, planktonic A. baumannii BAA 747, 37 °C, 24 h, OD 550 nm
Method: as §2, §3, §4

E. faecalis NCTC 12697 = conditions: checkerboard MIC, planktonic E. faecalis NCTC 12697, 37 °C, 24 h, OD 550 nm
Method: as §2, §3, §4

E. coli ATCC 8739 = conditions: checkerboard MIC, planktonic E. coli ATCC 8739, 37 °C, 24 h, OD 550 nm
Method: as §2, §3, §4

[3] = test system: S. aureus ATCC 6538 biofilm; assay type: cell-based, Staphylococcus aureus
Excerpt: The minimum bactericidal concentration (MBC) is defined as the lowest antibiotic concentration that kills 99.9% of the inoculum. The minimum biofilm inhibitory concentration (MBIC) is the lowest concentration that inhibits at least 90% of the formation of biofilm. The minimum biofilm eradication concentration (MBEC) is the minimum concentration that can eradicate at least 99% of the biofilm. In addition to the eight microorganisms described previously, this experiment was also applied to P. aeruginosa (ATCC 27853, ATCC BAA-2108, P. aeruginosa 01, P. aeruginosa 14).

E. coli (ATCC 8739) = assay: microbe, parasite or virus in culture; assay type: cell-based, Escherichia coli; conditions: planktonic E. coli ATCC 8739
Excerpt: as §1

Yeast = assay: Geometric mean of MICs and TI value; assay type: cell-based, Candida albicans; conditions: C. albicans ATCC 10231
Method: The therapeutic potential of antimicrobial agents was valued based on their selectivity toward bacteria in reference to erythrocytes. The TI value was calculated from the results of antibacterial and haemolysis experiments of peptides using the following formula:TI value = HC10 / GMMICs.
GM was the geometric mean of MICs against all tested bacteria.

C. albicans (ATCC 10231) = assay type: cell-based, Candida albicans; conditions: yeast C. albicans ATCC 10231
Excerpt: as §1

[4] = test system: P. aeruginosa ATCC CRM 9027 biofilm; assay: Peptide and antibiotic co-administration MBIC checkerboard assay; assay type: cell-based, Pseudomonas aeruginosa; conditions: 24 h, crystal violet, 595 nm
Excerpt: (§5) The plate was then carefully cleaned under running water.

[5] = test system: E. faecalis NCTC 12697 biofilm; assay: as above; assay type: cell-based, Enterococcus faecalis; conditions: 24 h, crystal violet, 595 nm
Excerpt: as §5

[6] = 37 °C, nine repeats of three independent experiments
[7] = lowest concentration killing 99.9% of inoculum
[8] = peptide combined with gentamicin
[9] = peptide combined with levofloxacin
[10] = peptide combined with vancomycin

Work on `CC[C@H](C)[C@H](NC(=O)[C@H](CCCCN)NC(=O)[C@H](CCCCN)NC(=O)CNC(=O)[C@H](C)NC(=O)CNC(=O)[C@H](CC(C)C)NC(=O)[C@@H](NC(=O)CNC(=O)[C@H](CO)NC(=O)[C@H](CC(C)C)NC(=O)[C@H](CC(C)C)NC(=O)CN)C(C)C)C(=O)N[C@H](C(=O)N[C@H]1CSSC[C@@H](C(=O)O)NC(=O)[C@H](CCCNC(=N)N)NC(=O)CNC(=O)[C@H](CO)NC(=O)[C@H](CC(C)C)NC(=O)CNC1=O)C(C)C` [Nigrosin-6VL] (H-GLLSGVLGAGKKIVCGLSGRC-OH; disulfide 15-21) yielded an MIC [1, 6] of 128 µM (≈ 254 µg/mL), an MBC [1, 7] of 128 µM (≈ 254 µg/mL) and an FICI (S. aureus ATCC 6538; peptide combined with cefepime) of 0.625. The FICI (S. aureus ATCC 6538; [8]) was 1.5, the FICI (S. aureus ATCC 6538; [9]) was 0.625 and the FICI (S. aureus ATCC 6538; [10]) was 2.25. For the same molecule, the FICI (MRSA NCTC 12493; peptide combined with cefepime) was 0.75, the FICI (MRSA NCTC 12493; [8]) was 0.5 and the FICI (MRSA NCTC 12493; [9]) was 2. The FICI (MRSA NCTC 12493; [10]) was 1, the FICI ([2]; peptide combined with cefepime) was 0.5 and the FICI [2, 8] was 0.5. For the same molecule, the FICI [2, 9] was 0.5, the FICI [2, 10] was >4 and the FICI (K. pneumoniae ATCC 43816; peptide combined with cefepime) was 0.1875. For the same molecule, the FICI (K. pneumoniae ATCC 43816; [8]) was 0.1875, the FICI (K. pneumoniae ATCC 43816; [9]) was 0.625 and the FICI (K. pneumoniae ATCC 43816; [10]) was 1.125. The FICI (A. baumannii BAA 747; peptide combined with cefepime) was 1, the FICI (A. baumannii BAA 747; [8]) was 0.1875 and the FICI (A. baumannii BAA 747; [9]) was >4. The FICI (A. baumannii BAA 747; [10]) was 1.25, the FICI (E. faecalis NCTC 12697; peptide combined with cefepime) was 0.125 and the FICI (E. faecalis NCTC 12697; [8]) was 0.625. For the same molecule, the FICI (E. faecalis NCTC 12697; [9]) was 0.625, the FICI (E. faecalis NCTC 12697; [10]) was 0.625 and the FICI (E. coli ATCC 8739; peptide combined with cefepime) was 0.375. It also gave an FICI (E. coli ATCC 8739; [8]) of 0.125, an FICI (E. coli ATCC 8739; [9]) of 0.375 and an FICI (E. coli ATCC 8739; [10]) of 1.125. For the same molecule, the MBIC ([3]; lowest concentration inhibiting at least 90% of biofilm formation) was 128/>128 µM, the MBEC ([3]; minimum concentration eradicating at least 99% of the biofilm) was 128/>128 µM and the MIC (E. coli (ATCC 8739); 37 °C, nine repeats of three independent experiments, read-out: MIC) was 64 µM (≈ 127 µg/mL). The MBC (E. coli (ATCC 8739); lowest concentration killing 99.9% of inoculum, read-out: MBC) was 128 µM (≈ 254 µg/mL), the “GM (geometric mean of MICs), Yeast” value (Yeast) was 128.00 µM and the MIC (C. albicans (ATCC 10231); [6]) was 128 µM (≈ 254 µg/mL). For the same molecule, the MBC (C. albicans (ATCC 10231); [7]) was > 128 µM, the “Biofilm FICI” value ([4]; peptide combined with cefepime) was 0.3125 and the “Biofilm FICI” value [4, 8] was 0.5. For the same molecule, the “Biofilm FICI” value ([5]; peptide combined with cefepime) was 0.5 and the “Biofilm FICI” value [5, 8] was 0.5.
